Measured values reported in US9708314B2, “Heterocyclic amide compound” (NISSAN CHEMICAL INDUSTRIES, LTD., priority 2013, dated 2017).

Test system: directly sowed Oryza sativa
Experiment: Test Example 3: effect on crop by application to foliage (Wagner pot, water depth 0.1-0.5 cm)
Type: in vivo
Details: Nineteenth Table; application to foliage; application herbicide amount 320 g/ha
Method in brief: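 Seeds were sown in alluvial soil in Wagner pots, grown for 14 days at 25–30 °C, then sprayed uniformly on foliage with the emulsified compound diluted to a given rate per hectare. Injury was graded three weeks after treatment from 0 (≤5%) to 5 (≥90%).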

Structure (SMILES)	b (effect on crop grade)
Cc1nnc(NC(=O)c2ccc(C(F)(F)F)n3c(CC(=O)NC(C)C)nnc23)o1 [1-061]	1 (Herbicidal ratio of 5% or more and less than 20%)
C=CCN(C)c1nnc2c(C(=O)Nc3nnc(C)o3)ccc(C(F)(F)F)n12 [1-166]	2 (Herbicidal ratio of 20% or more and less than 40%)
Cc1nnc(NC(=O)c2ccc(C(F)(F)F)n3c(CC#N)nnc23)o1 [1-168]	3 (Herbicidal ratio of 40% or more and less than 70%)
COCCc1nnc2c(C(=O)Nc3nnc(C)o3)ccc(C(F)(F)F)n12 [1-173]	2 (Herbicidal ratio of 20% or more and less than 40%)
